Results on four compounds are retold here after patent US9938261B2, “Heterocyclic compounds and methods of use thereof” (AMBIT BIOSCIENCES CORPORATION, priority 2011, dated 2018).

Experiment [1] has as its target T1, FLT3 (Homo sapiens, UniProt P36888).
T1 construct: made in house
T1 sequence (P36888 27-993): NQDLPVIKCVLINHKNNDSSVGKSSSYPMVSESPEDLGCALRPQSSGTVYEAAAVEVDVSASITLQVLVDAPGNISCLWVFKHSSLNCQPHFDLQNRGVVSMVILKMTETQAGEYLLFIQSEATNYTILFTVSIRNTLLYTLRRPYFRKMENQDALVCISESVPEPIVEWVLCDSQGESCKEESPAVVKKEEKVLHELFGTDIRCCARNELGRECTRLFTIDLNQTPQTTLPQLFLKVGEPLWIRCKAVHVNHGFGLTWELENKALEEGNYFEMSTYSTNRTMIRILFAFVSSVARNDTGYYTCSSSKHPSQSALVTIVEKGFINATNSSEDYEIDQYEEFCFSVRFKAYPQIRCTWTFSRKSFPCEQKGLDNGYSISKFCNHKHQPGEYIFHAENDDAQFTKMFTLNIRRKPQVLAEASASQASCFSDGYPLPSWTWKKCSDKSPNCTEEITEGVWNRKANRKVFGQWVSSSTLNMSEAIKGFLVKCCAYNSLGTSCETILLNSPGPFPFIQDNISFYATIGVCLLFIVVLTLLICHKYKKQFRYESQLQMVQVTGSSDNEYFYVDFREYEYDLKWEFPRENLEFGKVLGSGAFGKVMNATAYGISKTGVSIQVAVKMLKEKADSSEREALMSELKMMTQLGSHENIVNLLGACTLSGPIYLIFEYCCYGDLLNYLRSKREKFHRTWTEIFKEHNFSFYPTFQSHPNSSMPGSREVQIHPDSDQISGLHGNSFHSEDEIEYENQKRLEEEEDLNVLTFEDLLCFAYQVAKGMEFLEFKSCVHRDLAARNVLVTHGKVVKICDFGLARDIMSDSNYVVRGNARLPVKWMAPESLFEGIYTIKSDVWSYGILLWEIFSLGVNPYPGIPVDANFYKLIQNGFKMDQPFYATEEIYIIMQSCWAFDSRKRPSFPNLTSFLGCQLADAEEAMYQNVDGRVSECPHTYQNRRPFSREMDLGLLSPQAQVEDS
The experiment in a line: Competition binding assay, FLT3 Kd. Particulars: competition binding. The method, boiled down:
(§1)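 Compound displacement of kinase from bead-immobilized ligand is measured by qPCR after 1 h equilibration at room temperature. Kinases are T7 phage fusions or DNA-tagged HEK-293 products.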

Experiment [2] concerns the target T2, KIT (Homo sapiens, UniProt P10721).
T2 construct: made in house
The experiment in a line: Competition binding assay, KIT Kd. Particulars: competition binding. In outline: as §1

The target in experiment [3] is T3, PDGFRβ (Homo sapiens, UniProt P09619).
T3 construct: made in house
T3 sequence (P09619 33-1106): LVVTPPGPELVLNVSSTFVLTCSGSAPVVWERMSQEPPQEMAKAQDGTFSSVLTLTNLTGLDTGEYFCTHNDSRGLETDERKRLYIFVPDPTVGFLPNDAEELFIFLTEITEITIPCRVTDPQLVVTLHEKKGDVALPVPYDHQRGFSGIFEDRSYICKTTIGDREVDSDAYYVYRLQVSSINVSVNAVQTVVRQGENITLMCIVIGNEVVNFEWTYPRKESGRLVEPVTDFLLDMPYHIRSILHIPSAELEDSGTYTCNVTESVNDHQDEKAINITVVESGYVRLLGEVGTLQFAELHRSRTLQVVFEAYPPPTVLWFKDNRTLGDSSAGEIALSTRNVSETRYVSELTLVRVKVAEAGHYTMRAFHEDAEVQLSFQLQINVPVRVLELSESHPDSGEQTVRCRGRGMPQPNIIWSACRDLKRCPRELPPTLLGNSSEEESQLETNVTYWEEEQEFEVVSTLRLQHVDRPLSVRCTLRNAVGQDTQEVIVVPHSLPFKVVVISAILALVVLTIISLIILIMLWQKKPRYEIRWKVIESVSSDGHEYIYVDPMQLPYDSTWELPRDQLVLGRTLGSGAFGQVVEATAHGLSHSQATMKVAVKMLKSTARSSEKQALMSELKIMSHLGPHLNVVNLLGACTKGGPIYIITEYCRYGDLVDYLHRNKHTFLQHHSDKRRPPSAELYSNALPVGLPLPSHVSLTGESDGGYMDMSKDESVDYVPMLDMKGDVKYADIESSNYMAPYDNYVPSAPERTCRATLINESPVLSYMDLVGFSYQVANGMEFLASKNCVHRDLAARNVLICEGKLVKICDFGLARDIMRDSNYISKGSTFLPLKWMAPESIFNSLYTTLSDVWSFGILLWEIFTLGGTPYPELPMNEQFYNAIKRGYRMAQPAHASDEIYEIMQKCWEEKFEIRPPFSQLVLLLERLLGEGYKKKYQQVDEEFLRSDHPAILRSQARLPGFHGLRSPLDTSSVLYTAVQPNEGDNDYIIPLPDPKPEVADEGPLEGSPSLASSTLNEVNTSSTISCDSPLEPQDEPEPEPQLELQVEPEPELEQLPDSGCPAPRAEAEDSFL
The experiment in a line: Competition binding assay, PDGFRβ Kd. Particulars: competition binding. In outline: as §1

In experiment [4] the target is kinase panel containing either 386 or 392 distinct kinases. The experiment in a line: Kinase selectivity score S10 from competition binding panel. Particulars: 10 μM, panel of 386 or 392 distinct kinases. The method, boiled down: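 S10 is the number of kinases with percent-of-control under 10, divided by all distinct wild-type kinases tested, from a single 10 μM concentration. Binding measured by qPCR of kinase recovered from ligand-coated beads after 1 h equilibrium at room temperature; kinases were phage fusions or DNA-tagged HEK-293 products.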

Experiment [5] addresses CSF1R (Homo sapiens, UniProt P07333). The experiment in a line: Competition binding assay, CSF1R Kd. Particulars: competition binding. On the set-up: made in house. In outline:
as §1

T2 sequence (P10721 26-976): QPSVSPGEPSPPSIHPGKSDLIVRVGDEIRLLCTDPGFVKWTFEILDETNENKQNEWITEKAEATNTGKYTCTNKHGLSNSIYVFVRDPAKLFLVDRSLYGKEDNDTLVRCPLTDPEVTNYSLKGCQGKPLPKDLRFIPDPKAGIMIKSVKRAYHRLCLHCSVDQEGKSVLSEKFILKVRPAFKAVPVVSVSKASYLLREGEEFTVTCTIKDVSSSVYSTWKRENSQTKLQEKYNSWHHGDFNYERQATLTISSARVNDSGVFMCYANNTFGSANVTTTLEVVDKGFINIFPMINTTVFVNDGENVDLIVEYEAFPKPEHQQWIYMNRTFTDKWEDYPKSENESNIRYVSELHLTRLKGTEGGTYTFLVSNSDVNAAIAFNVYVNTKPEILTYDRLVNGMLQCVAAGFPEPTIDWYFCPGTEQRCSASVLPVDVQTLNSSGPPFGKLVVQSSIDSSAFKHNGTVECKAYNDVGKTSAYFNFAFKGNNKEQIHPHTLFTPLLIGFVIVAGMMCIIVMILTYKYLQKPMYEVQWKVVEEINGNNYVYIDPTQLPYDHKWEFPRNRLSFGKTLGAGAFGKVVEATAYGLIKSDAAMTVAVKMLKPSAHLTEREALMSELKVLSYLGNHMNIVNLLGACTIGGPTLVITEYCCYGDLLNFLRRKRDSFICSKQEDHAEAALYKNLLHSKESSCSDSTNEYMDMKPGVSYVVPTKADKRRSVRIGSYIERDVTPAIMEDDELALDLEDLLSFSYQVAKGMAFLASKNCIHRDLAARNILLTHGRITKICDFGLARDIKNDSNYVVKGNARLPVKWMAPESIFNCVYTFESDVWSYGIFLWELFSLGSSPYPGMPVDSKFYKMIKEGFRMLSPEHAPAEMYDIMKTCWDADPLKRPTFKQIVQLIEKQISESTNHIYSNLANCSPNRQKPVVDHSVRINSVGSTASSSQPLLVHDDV
Sequence of CSF1R (P07333 20-972): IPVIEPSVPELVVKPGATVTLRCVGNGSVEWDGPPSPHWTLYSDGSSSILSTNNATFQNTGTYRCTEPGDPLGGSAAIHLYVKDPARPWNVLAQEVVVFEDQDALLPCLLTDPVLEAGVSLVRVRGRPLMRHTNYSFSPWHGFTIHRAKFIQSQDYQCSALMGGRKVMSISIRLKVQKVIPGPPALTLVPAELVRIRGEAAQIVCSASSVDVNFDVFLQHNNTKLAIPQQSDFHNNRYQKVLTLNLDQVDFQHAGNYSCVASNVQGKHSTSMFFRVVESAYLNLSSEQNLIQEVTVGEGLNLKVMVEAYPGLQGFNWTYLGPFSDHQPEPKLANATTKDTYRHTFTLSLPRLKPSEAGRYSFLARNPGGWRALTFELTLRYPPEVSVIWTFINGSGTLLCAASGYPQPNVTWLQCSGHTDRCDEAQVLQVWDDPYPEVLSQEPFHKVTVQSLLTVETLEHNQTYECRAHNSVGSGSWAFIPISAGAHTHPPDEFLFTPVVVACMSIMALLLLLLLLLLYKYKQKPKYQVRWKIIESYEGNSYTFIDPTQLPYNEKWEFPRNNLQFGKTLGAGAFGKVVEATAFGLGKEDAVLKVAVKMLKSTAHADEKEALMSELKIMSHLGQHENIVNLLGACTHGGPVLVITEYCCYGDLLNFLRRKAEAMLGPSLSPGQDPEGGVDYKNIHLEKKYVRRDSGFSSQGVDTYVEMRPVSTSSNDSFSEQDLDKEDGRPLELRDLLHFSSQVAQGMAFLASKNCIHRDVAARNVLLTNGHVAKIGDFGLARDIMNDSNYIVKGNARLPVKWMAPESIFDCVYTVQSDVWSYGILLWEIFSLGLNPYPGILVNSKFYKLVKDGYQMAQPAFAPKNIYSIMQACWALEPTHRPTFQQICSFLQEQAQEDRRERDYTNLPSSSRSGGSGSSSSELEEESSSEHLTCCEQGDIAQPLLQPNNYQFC

For `OC[C@@H]1CCC[C@@H](Nc2nc3ccc(Cn4cnc5cc(F)cnc54)cc3s2)C1` [Example 192, ((1R,3R)-3-((6-((6-fluoro-3H-imidazo[4,5-b]pyridin-3-yl)methyl)benzo[d]thiazol-2-yl)amino)cyclohexyl)methanol], the Kd was 1000 to 5000 nM in experiment [1], 100 to 500 nM in experiment [2], at most 50 nM in experiment [3] and 5 to 20 nM in experiment [5]. Moreover, in experiment [4], the “Kinase specificity S(10)” value was “B (0.01<B≤0.02)”.

In the case of `O[C@@H]1[C@H](O)CCC[C@H]1Nc1nc2ccc(Cn3cnc4cc(F)cnc43)cc2s1` [Example 193, (1R,2S,3R)-3-((6-((6-fluoro-3H-imidazo[4,5-b]pyridin-3-yl)methyl)benzo[d]thiazol-2-yl)amino)cyclohexane-1,2-diol], the Kd was 1000 to 5000 nM in experiment [1], at most 100 nM in experiment [2], at most 50 nM in experiment [3] and 5 to 20 nM in experiment [5]. For the same compound, the “Kinase specificity S(10)” value in experiment [4] is “A (A≤0.01)”.

Consider `OC[C@H]1CCC[C@@H](Nc2nc3ccc(Cn4cnc5cc(F)cnc54)cc3s2)C1` [Example 194, ((1S,3R)-3-((6-((6-fluoro-3H-imidazo[4,5-b]pyridin-3-yl)methyl)benzo[d]thiazol-2-yl)amino)cyclohexyl)methanol], for which the Kd is 200 to 1000 nM in experiment [1], at most 100 nM in experiment [2], at most 50 nM in experiment [3] and 5 to 20 nM in experiment [5]. Moreover, the “Kinase specificity S(10)” value in experiment [4] is “B (0.01<B≤0.02)”.

On to `N#Cc1cc2ncn(Cc3ccc4nc(N[C@@H]5CCCC[C@H]5O)oc4c3)c2cc1Cl` [Example 195, 6-chloro-1-((2-(((1R,2R)-2-hydroxycyclohexyl)amino)benzo[d]oxazol-6-yl)methyl)-1H-benzo[d]imidazole-5-carbonitrile], for which the dissociation constant Kd in experiment [1] was in the range of 1000 to 5000 nM; in experiment [2] it was 500 to 2000 nM; in experiment [3], 500 to 2000 nM; in experiment [5], 20 to 50 nM. The “Kinase specificity S(10)” value in experiment [4] was “A (A≤0.01)”.

For orientation: Kd means the concentration at which binding is half-saturated. Read a low Kd as a tighter complex.
